Publication PMC11643494, “Structure–Activity Relationship Studies in a Series of 2-Aryloxy-N-(pyrimidin-5-yl)acetamide Inhibitors of SLACK Potassium Channels” (Molecules, 2024)
pIC50: −log10 of the molar value.

Molecular target: T1, WT human SLACK (Homo sapiens, UniProt Q5JUK3)
T1 construct: host or cells: CHO-K1
T1 sequence (Q5JUK3 1-1235 isoform Q5JUK3-3): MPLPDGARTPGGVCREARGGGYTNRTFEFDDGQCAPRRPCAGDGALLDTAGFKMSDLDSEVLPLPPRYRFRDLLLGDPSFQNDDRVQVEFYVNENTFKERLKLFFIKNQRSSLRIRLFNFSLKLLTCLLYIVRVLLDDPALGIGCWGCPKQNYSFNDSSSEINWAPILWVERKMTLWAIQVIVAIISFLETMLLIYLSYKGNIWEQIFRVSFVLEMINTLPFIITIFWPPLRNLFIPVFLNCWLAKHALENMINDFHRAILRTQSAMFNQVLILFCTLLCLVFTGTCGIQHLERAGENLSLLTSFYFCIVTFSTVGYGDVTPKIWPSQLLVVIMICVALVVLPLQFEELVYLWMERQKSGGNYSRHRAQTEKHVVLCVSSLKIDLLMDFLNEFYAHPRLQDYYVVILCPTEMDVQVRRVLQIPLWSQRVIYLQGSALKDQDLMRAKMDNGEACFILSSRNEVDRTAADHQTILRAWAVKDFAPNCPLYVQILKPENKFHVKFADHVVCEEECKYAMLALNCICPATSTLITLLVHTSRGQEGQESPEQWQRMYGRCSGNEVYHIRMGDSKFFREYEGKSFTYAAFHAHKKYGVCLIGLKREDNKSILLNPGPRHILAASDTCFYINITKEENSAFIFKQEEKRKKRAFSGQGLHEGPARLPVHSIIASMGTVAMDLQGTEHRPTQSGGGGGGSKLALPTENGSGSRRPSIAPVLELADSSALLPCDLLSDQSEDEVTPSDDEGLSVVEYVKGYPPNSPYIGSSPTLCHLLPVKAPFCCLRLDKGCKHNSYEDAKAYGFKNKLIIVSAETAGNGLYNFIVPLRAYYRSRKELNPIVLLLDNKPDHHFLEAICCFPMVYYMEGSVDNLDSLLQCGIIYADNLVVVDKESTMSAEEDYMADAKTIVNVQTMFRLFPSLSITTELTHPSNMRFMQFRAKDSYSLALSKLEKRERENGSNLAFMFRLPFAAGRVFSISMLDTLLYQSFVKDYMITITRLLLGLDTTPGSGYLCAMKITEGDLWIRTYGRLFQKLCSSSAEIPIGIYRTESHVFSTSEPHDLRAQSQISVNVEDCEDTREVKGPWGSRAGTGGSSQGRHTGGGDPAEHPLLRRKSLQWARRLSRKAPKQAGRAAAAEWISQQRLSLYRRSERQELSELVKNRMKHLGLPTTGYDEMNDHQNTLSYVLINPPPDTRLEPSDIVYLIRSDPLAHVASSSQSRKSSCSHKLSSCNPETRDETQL
Experiment: Whole-cell automated patch clamp (APC) in CHO-K1 cells stably expressing WT human SLACK
Assay type: cell-based
Details: for pIC50: APC, CHO-K1 cells stably expressing WT human SLACK, averages (n ≥ 3); for SLACK Imax: maximum inhibition at 30 µM test compound standardized to VU0606170 (set at 100%), WT human SLACK
Procedure: Using concentrations ranging from 0.125 to 30 µM in half-log steps, a concentration–response relationship was generated for each new analog using our APC assay in CHO-K1 cells stably expressing WT SLACK. A minimum of three cells, i.e., replicates, were collected per concentration for each analog.
Automated patch clamp recording was performed with a SyncroPatch 768 PE system (Nanion, Munich, Germany) as previously described. Whole-cell recordings were performed at room temperature. Cells were harvested by first washing with PBS without Mg^2+ or Ca^2+ (Gibco, Billings, MT, USA) to remove cell culture medium, followed by dissociation with TryPLE (Gibco, Billings, MT, USA). Cells were then resuspended and diluted to 200,000 cells/mL in external solution. External solution contained 105 mM NaCl, 4 mM KCl, 1 mM MgCl2, 5 mM CaCl2, 10 mM HEPES, 40 mM N-Methyl-D-glucamine chloride, titrated to pH 7.4 with NaOH and osmolarity of 300 mOsm/kg; internal solution contained 70 mM NaCl, 70 mM KF, 10 mM KCl, 5 mM EGTA, 5mM HEPES, titrated to a pH 7.2 with KOH and osmolarity of 295 mOsm/kg.
The APC protocol was set as following: Cells were held at […] −80 mV for 100 ms, then a ramp protocol was performed from −100 mV to 80 mV at 0.4 mV/ms, hold the cell at −80 mV for another 100 ms, then steps were performed at −20 mV, 0 mV, +20 mV, +40 mV, and +60 mV for 100 ms of each step. Whole-cell currents were measured at 0 mV and normalized to current after external buffer addition.

Structure (SMILES)	pIC50	Fold improvement in potency relative to 10 (WT SLACK APC IC50)	SLACK Imax
CC(C)(Oc1ccc(Cl)cc1)C(=O)Nc1cnc(Oc2c(F)cccc2F)nc1 [Analog 40]	6.28	~3 fold	98%
CN(c1ccc(C#N)cc1)c1ncc(NC(=O)C(C)(C)Oc2ccc(Cl)cc2)cn1 [Analog 66]	6.04	–	95%
